Measurements published in US20080274892A1, “Novel Haloalkylsulfonanilide Derivative, Herbicide, and Method of Use Thereof” (priority 2005, published 2008).

Assays:
[1] = system: bulrush; assay: Test Example 1: herbicidal efficacy on rice paddy weeds pre-emergence; assay type: in vivo, Scirpus juncoides; details: 21 days
Description: (§1) A 75 cm^2 plastic pot was filled with soil (clay loam) and planted seeds of bulrush which is a rice paddy weed. After covering the top with 75 cm^3 soil mixed with seeds of false pimpernel, the pot was filled with water so that the soil submerged under 5 cm depth of water. The predetermined effective dosage ([…]) of a formulation containing the compound of the present invention prepared according to Formulation Example 1-4 as an active ingredient was diluted in water and added to the pot water surface dropwise. The pot was kept in a hot house for 21 days and the herbicidal efficacy was investigated. The herbicidal efficacy was evaluated according to the following standard by comparing with untreated control. “-” in the table represents test not done.
(§2) The standard of judgment for herbicidal efficacy (degree of growth inhibition) and phytotoxicity 4 . . . 90%-100% of herbicidal efficacy or phytotoxicity 3 . . . 70%-89% of herbicidal efficacy or phytotoxicity 2 . . . 40%-69% of herbicidal efficacy or phytotoxicity 1 . . . 1%-39% of herbicidal efficacy or phytotoxicity 0 . . . 0% of herbicidal efficacy or phytotoxicity

[2] = system: false pimpernel; assay: as above; assay type: in vivo, Lindernia pyxidaria; details: 21 days
Description: as §1, §2

[3] = system: barnyard glass; assay: Test Example 2: herbicidal efficacy on rice paddy weeds post-emergence; assay type: in vivo, Echinochloa crus-galli; details: post-emergence, one leaf stage, 21 days after treatment
Source text: as §2
(§3) A 75 cm^2 plastic pot was filled with soil (clay loam) and planted seeds of barnyard glass and bulrush which is a rice paddy weed. After covering the top with 75 cm^3 soil mixed with seeds of false pimpernel, the pot was filled with water so that the soil submerged under 5 cm depth of water and kept in a hot house. […] The pot was kept in a hot house for 21 days after the treatment and the herbicidal efficacy was investigated and evaluated according to the standard in Test Example 1 by comparing with the untreated control. “-” in the table represents test not done.

[4] = system: bulrush; assay: as above; assay type: in vivo, Scirpus juncoides; details: post-emergence, one leaf stage, 21 days after treatment
Source text: as §2, §3

[5] = system: false pimpernel; assay: as above; assay type: in vivo, Lindernia pyxidaria; details: post-emergence, one leaf stage, 21 days after treatment
Source text: as §2, §3

[6] = system: paddy rice plant (cultivar: Nihonbare); assay: Test Example 3: phytotoxicity test for transplanted paddy rice plant; assay type: in vivo; details: transplanted rice, 21 days after treatment
Description: as §2
A 75 cm^2 plastic pot was filled with soil (clay loam), and water was added so that the soil was submerged under 5 cm depth of water. Two paddy rice plant (cultivar: Nihonbare) at two leaves stage were transplanted at the depth of 1 cm and kept in a hot house. […] The pot was kept in a hot house for 21 days after the treatment and the phytotoxicity was investigated and evaluated according to the standard in Test Example 1 by comparing with the untreated control. “-” in the table represents test not done.

[7] = dosage 1000 g/ha, treated 5 days after transplantation

Structure (SMILES)	Bulrush pre (herbicidal efficacy grade) ([1]; dosage 1000 g/ha)	False pimpernel pre (herbicidal efficacy grade) ([2]; dosage 1000 g/ha)	Burnyard grass post (herbicidal efficacy grade) ([3]; dosage 1000 g/ha)	Bulrush post (herbicidal efficacy grade) ([4]; dosage 1000 g/ha)	False pimpernel post (herbicidal efficacy grade) ([5]; dosage 1000 g/ha)	Phytotoxicity to paddy rice [6, 7]	Bulrush pre (herbicidal efficacy grade) ([1]; dosage 300 g/ha)	False pimpernel pre (herbicidal efficacy grade) ([2]; dosage 300 g/ha)	Burnyard grass post (herbicidal efficacy grade) ([3]; dosage 300 g/ha)	Bulrush post (herbicidal efficacy grade) ([4]; dosage 300 g/ha)	False pimpernel post (herbicidal efficacy grade) ([5]; dosage 300 g/ha)	Phytotoxicity to paddy rice ([6]; dosage 300 g/ha)
O=C1OCCN1Cc1ccccc1NS(=O)(=O)C(F)(F)F [Compound 1-1]	4 (90%-100% of herbicidal efficacy or phytotoxicity)	4 (90%-100% of herbicidal efficacy or phytotoxicity)	4 (90%-100% of herbicidal efficacy or phytotoxicity)	4 (90%-100% of herbicidal efficacy or phytotoxicity)	4 (90%-100% of herbicidal efficacy or phytotoxicity)	1 (1%-39% of herbicidal efficacy or phytotoxicity)	–	–	–	–	–	–
CCCC1COC(=O)N1Cc1ccccc1NS(=O)(=O)C(F)(F)F (stereo not drawn) [Compound 1-7]	–	–	–	–	–	–	4 (90%-100% of herbicidal efficacy or phytotoxicity)	4 (90%-100% of herbicidal efficacy or phytotoxicity)	1 (1%-39% of herbicidal efficacy or phytotoxicity)	4 (90%-100% of herbicidal efficacy or phytotoxicity)	2 (40%-69% of herbicidal efficacy or phytotoxicity)	1 (1%-39% of herbicidal efficacy or phytotoxicity)
CCCC1COC(=O)N1Cc1ccccc1N(C(=O)OCC(C)C)S(=O)(=O)C(F)(F)F (stereo not drawn) [Compound 1-8]	–	–	–	–	–	–	4 (90%-100% of herbicidal efficacy or phytotoxicity)	4 (90%-100% of herbicidal efficacy or phytotoxicity)	4 (90%-100% of herbicidal efficacy or phytotoxicity)	4 (90%-100% of herbicidal efficacy or phytotoxicity)	2 (40%-69% of herbicidal efficacy or phytotoxicity)	0 (0% of herbicidal efficacy or phytotoxicity)
CC(C)C1COC(=O)N1Cc1ccccc1NS(=O)(=O)C(F)(F)F (stereo not drawn) [Compound 1-9]	–	–	–	–	–	–	4 (90%-100% of herbicidal efficacy or phytotoxicity)	4 (90%-100% of herbicidal efficacy or phytotoxicity)	4 (90%-100% of herbicidal efficacy or phytotoxicity)	4 (90%-100% of herbicidal efficacy or phytotoxicity)	2 (40%-69% of herbicidal efficacy or phytotoxicity)	2 (40%-69% of herbicidal efficacy or phytotoxicity)
CC(C)COC(=O)N(c1ccccc1CN1C(=O)OCC1C(C)C)S(=O)(=O)C(F)(F)F (stereo not drawn) [Compound 1-10]	4 (90%-100% of herbicidal efficacy or phytotoxicity)	4 (90%-100% of herbicidal efficacy or phytotoxicity)	4 (90%-100% of herbicidal efficacy or phytotoxicity)	4 (90%-100% of herbicidal efficacy or phytotoxicity)	4 (90%-100% of herbicidal efficacy or phytotoxicity)	1 (1%-39% of herbicidal efficacy or phytotoxicity)	–	–	–	–	–	–
CCCCC1COC(=O)N1Cc1ccccc1NS(=O)(=O)C(F)(F)F (stereo not drawn) [Compound 1-11]	–	–	–	–	–	–	4 (90%-100% of herbicidal efficacy or phytotoxicity)	2 (40%-69% of herbicidal efficacy or phytotoxicity)	0 (0% of herbicidal efficacy or phytotoxicity)	3 (70%-89% of herbicidal efficacy or phytotoxicity)	1 (1%-39% of herbicidal efficacy or phytotoxicity)	0 (0% of herbicidal efficacy or phytotoxicity)
CCCCC1COC(=O)N1Cc1ccccc1N(C(=O)OCC(C)C)S(=O)(=O)C(F)(F)F (stereo not drawn) [Compound 1-12]	–	–	–	–	–	–	4 (90%-100% of herbicidal efficacy or phytotoxicity)	2 (40%-69% of herbicidal efficacy or phytotoxicity)	2 (40%-69% of herbicidal efficacy or phytotoxicity)	4 (90%-100% of herbicidal efficacy or phytotoxicity)	2 (40%-69% of herbicidal efficacy or phytotoxicity)	0 (0% of herbicidal efficacy or phytotoxicity)
O=C1OC(C(F)(F)F)CN1Cc1ccccc1NS(=O)(=O)C(F)(F)F (stereo not drawn) [Compound 1-19]	–	–	–	–	–	–	4 (90%-100% of herbicidal efficacy or phytotoxicity)	3 (70%-89% of herbicidal efficacy or phytotoxicity)	2 (40%-69% of herbicidal efficacy or phytotoxicity)	4 (90%-100% of herbicidal efficacy or phytotoxicity)	2 (40%-69% of herbicidal efficacy or phytotoxicity)	0 (0% of herbicidal efficacy or phytotoxicity)
CC(C)COC(=O)N(c1ccccc1CN1CC(C(F)(F)F)OC1=O)S(=O)(=O)C(F)(F)F (stereo not drawn) [Compound 1-20]	–	–	–	–	–	–	4 (90%-100% of herbicidal efficacy or phytotoxicity)	3 (70%-89% of herbicidal efficacy or phytotoxicity)	4 (90%-100% of herbicidal efficacy or phytotoxicity)	4 (90%-100% of herbicidal efficacy or phytotoxicity)	3 (70%-89% of herbicidal efficacy or phytotoxicity)	0 (0% of herbicidal efficacy or phytotoxicity)
CCCC1CN(Cc2ccccc2NS(=O)(=O)C(F)(F)F)C(=O)O1 (stereo not drawn) [Compound 1-29]	4 (90%-100% of herbicidal efficacy or phytotoxicity)	4 (90%-100% of herbicidal efficacy or phytotoxicity)	4 (90%-100% of herbicidal efficacy or phytotoxicity)	4 (90%-100% of herbicidal efficacy or phytotoxicity)	4 (90%-100% of herbicidal efficacy or phytotoxicity)	2 (40%-69% of herbicidal efficacy or phytotoxicity)	–	–	–	–	–	–
CCCC1CN(Cc2ccccc2N(C(=O)OCC(C)C)S(=O)(=O)C(F)(F)F)C(=O)O1 (stereo not drawn) [Compound 1-30]	4 (90%-100% of herbicidal efficacy or phytotoxicity)	4 (90%-100% of herbicidal efficacy or phytotoxicity)	4 (90%-100% of herbicidal efficacy or phytotoxicity)	4 (90%-100% of herbicidal efficacy or phytotoxicity)	4 (90%-100% of herbicidal efficacy or phytotoxicity)	0 (0% of herbicidal efficacy or phytotoxicity)	–	–	–	–	–	–
CC(C)(C)C1CN(Cc2ccccc2NS(=O)(=O)C(F)(F)F)C(=O)O1 (stereo not drawn) [Compound 1-33]	4 (90%-100% of herbicidal efficacy or phytotoxicity)	4 (90%-100% of herbicidal efficacy or phytotoxicity)	4 (90%-100% of herbicidal efficacy or phytotoxicity)	4 (90%-100% of herbicidal efficacy or phytotoxicity)	4 (90%-100% of herbicidal efficacy or phytotoxicity)	2 (40%-69% of herbicidal efficacy or phytotoxicity)	–	–	–	–	–	–
CC(C)COC(=O)N(c1ccccc1CN1CC(C(C)(C)C)OC1=O)S(=O)(=O)C(F)(F)F (stereo not drawn) [Compound 1-34]	4 (90%-100% of herbicidal efficacy or phytotoxicity)	4 (90%-100% of herbicidal efficacy or phytotoxicity)	4 (90%-100% of herbicidal efficacy or phytotoxicity)	4 (90%-100% of herbicidal efficacy or phytotoxicity)	4 (90%-100% of herbicidal efficacy or phytotoxicity)	1 (1%-39% of herbicidal efficacy or phytotoxicity)	–	–	–	–	–	–
COCC1CN(Cc2ccccc2N(C(=O)OCC(C)C)S(=O)(=O)C(F)(F)F)C(=O)O1 (stereo not drawn) [Compound 1-36]	4 (90%-100% of herbicidal efficacy or phytotoxicity)	4 (90%-100% of herbicidal efficacy or phytotoxicity)	4 (90%-100% of herbicidal efficacy or phytotoxicity)	4 (90%-100% of herbicidal efficacy or phytotoxicity)	4 (90%-100% of herbicidal efficacy or phytotoxicity)	1 (1%-39% of herbicidal efficacy or phytotoxicity)	–	–	–	–	–	–
